{"source": "patent US6858235B2", "about": "“Antioxidant composition and method of preparation thereof” (Eromlife Co. Ltd., priority 2002, dated 2005)", "assay": "Antioxidant activity using the free radical source DPPH (absorbance at 517 nm)", "format": "biochemical", "conditions": "for Antioxidant activity RC50: DPPH 0.4 mM, room temperature, 30 minutes, absorbance 517 nm, concentration giving 50% of control absorbance", "description": "The antioxidant activity of the Rosa multiflora extract of the present invention obtained according to the above method was measured according to the method for measuring antioxidant activity (The Korean Society of Food and Nutrition, Handbook for Experiments in Food and Nutrition, 651p, 2000; Blois, M. S., Nature, 4617:1198, 1958).\nIn addition, active fractions showing antioxidant activity can be obtained by fractionating and purifying the obtained Rosa multiflora extracts by chromatography. It is preferable to carry out silica gel column chromatography once or twice. Where active fractions obtained by silica gel column chromatography are further subjected to ODS column chromatography, more highly purified active fractions can be obtained. A mixture of chloroform and methanol or a mixture of methanol and distilled water can be used as a developing solvent at the time of chromatography. A flow rate of the developing solvent is generally from 5 Ml/hr to 1000 Ml/hr and preferably from 20 Ml/hr to 500 Ml/hr. The fractions eluted by chromatography are collected in flasks in the amount of 5 Ml to 100 Ml respectively. Active fractions showing antioxidant activity can be obtained by measuring antioxidant activities of the collected fractions. Antioxidant activity can be measured by a known method (The Korean Society of Food and Nutrition, Handbook for Experiments in Food and Nutrition, 651p, 2000; Blois, M. S., Nature, 4617:1198, 1958).\nAntioxidant activity was measured according to the method for measuring antioxidant activity using a free radical source, 1,1-diphenyl-2-picrylhydrazyl (DPPH) (The Korean Society of Food and Nutrition, Handbook for Experiments in Food and Nutrition, 651p, 2000; Blois, M. S., Nature, 4617: 1198, 1958). […] 0.8 Ml of DPPH (0.4 mM) solution and 3 Ml of ethanol were added, the reaction was carried out at the room temperature for 30 minutes and absorbance was measured at 517 nm. Antioxidant activity was expressed as a RC50 value. The RC50 represents the concentration of antioxidant (μg/Ml) required to achieve an absorbance equal to 50% of the absorbance of a control in which no antioxidants are contained."}
{"compound": "COc1ccc(O)c(C(C)(C)C)c1", "note": "[BHA, butylated hydroxy anisole, reference compound]", "values": [{"measurement": "Antioxidant activity RC50", "result": 9.2, "unit": "µg/mL"}]}
{"compound": "Oc1cc(O)c2c(c1)O[C@H](c1ccc(O)c(O)c1)[C@@H](O)[C@@H]2c1c(O)cc(O)c2c1O[C@H](c1ccc(O)c(O)c1)[C@@H](O)C2", "note": "[Procyanidin B3, catechin-(4α→8)-catechin]", "values": [{"measurement": "Antioxidant activity RC50", "result": 3.4, "unit": "µg/mL"}, {"measurement": "Antioxidant activity relative to α-tocopherol (times stronger)", "setting": "compared with the natural antioxidant α-tocopherol, DPPH RC50", "result": 3.8, "unit": "times"}, {"measurement": "Antioxidant activity relative to BHA (times stronger)", "setting": "compared with the synthetic antioxidant BHA, DPPH RC50", "result": 2.7, "unit": "times"}]}
{"compound": "Cc1c(C)c2c(c(C)c1O)CC[C@@](C)(CCC[C@H](C)CCC[C@H](C)CCCC(C)C)O2", "note": "[α-tocopherol, reference compound]", "values": [{"measurement": "Antioxidant activity RC50", "result": 13.0, "unit": "µg/mL"}]}
